This passage reports IC50 results from patent publication US7803816B2, “MCH receptor antagonists” (Hoffmann-La Roche Inc., priority 2005, dated 2010).

Where a name gives a salt, the structure may show the parent alone.

The target of one assay is T1, recombinant human MCHR1-receptors (Homo sapiens, UniProt Q99705).
T1 construct: expressed in transfected cells
T1 sequence (Q99705 whole entry): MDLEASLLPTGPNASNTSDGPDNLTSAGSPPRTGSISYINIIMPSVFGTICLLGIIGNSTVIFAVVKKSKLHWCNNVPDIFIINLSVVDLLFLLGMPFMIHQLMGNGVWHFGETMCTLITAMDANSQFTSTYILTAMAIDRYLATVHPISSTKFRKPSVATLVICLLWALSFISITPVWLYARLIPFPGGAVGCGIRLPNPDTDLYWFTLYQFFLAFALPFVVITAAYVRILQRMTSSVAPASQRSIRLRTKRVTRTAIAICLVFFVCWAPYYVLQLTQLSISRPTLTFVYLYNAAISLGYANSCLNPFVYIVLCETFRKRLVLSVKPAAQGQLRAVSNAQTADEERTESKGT
Put plainly: MCHR filter binding assay (competition binding). Particulars: membranes from CHO-K1 cells expressing human MCHR1; 0.2 nM [Phe13,[125I]Tyr19]-MCH; read-out: IC50 (nM), in vitro activity (binding assay). The protocol:
MCHR Filter Binding Assay
Competition binding assays were performed using membranes from CHO-K1 cells stably expressing the recombinant human MCHR1-receptors. Binding reactions (90 μl, final volume) were carried out at rt by incubating 2.8 μg membranes with 0.2 nM [Phe^13,[^125I]Tyr^19]-MCH (PerkinElmer) in the absence or presence of various concentrations of competing ligands in binding buffer (50 mM HEPES, 2.5 mM CaCl2, 0.05 mM BSA, 1 mM phenanthroline, 0.03 mM Triton X-100). [Phe^13,[^125I]Tyr^19]-MCH was added 15 min following the addition of unlabeled competing ligands, and the reactions incubated for a 1 h period. The reactions were terminated by rapid filtration over pretreated 96-well filter plates (Millipore; MultiScreen 0.65 μm GFB filter plates). Filter Plates were treated for 12 h at 4° C. with a 0.5% polyvinylpyrrolidone solution containing 1% BSA and 0.1% Tween 20, and then washed with an ice-cold solution of 10 mM Tris, pH 7.5 (5×200 μl). The plates were drained following a 5 min incubation with binding buffer (200 μl) at rt. Following termination of the binding reactions, the filters were washed with ice-cold binding buffer (4×200 μl). The filter plates were air dried for 30 min, scintillation cocktail (60 μl) added to each well and radioactivity bound to the plates was determined using a Micro-beta plate reader (Wallace/PerkinElmer).
As for `Cc1ccc2c(c1)nc(C(C)(C)O)n2[C@@H]1CCN(C[C@H]2Cc3ccc(Br)cc3C2)CC1O` (stereo in doubt) [Example 122, (3R,4R)-1-((S)-5-Bromo-indan-2-ylmethyl)-4-[2-(1-hydroxy-1-methyl-ethyl)-5-methyl-benzoimidazol-1-yl]-piperidin-3-ol], the concentration for half-maximal inhibition (IC50) – broadly, the point on the concentration scale where inhibition reaches its midpoint – is less than 20 nM. Still for that read-out and setting: with `CO[C@H]1CN(C[C@H]2Cc3ccc(Br)cc3C2)CC[C@@H]1n1c(C)nc2cc(C)ccc21` [Example 91, 1-[(3S,4S)-1-((S)-5-Bromo-indan-2-ylmethyl)-3-methoxy-piperidin-4-yl]-2,5-dimethyl-1H-benzoimidazole; dihydrochloride] the figure was 20 to 200 nM. Same read-out and setting: with `CSC1CN(C[C@@H]2Cc3ccc(NC(=O)C(C)C)cc3C2)CCC1n1c(C)nc2cc(C)ccc21` (stereo partly drawn) [Example 22, N-{(R)-2-[4-(2,5-Dimethyl-benzoimidazol-1-yl)-3-methylsulfanyl-piperidin-1-ylmethyl]-indan-5-yl}-isobutyramide; dihydrochloride] the figure was 20 to 200 nM. The same measure, in the same setting: with `CO[C@H]1CN(C[C@@H]2Cc3ccc(NC(=O)C(F)F)cc3C2)CC[C@@H]1n1c(C2CC2)nc2cc(C)ccc21` [Example 63, N-{(R)-2-[(3S,4S)-4-(2-Cyclopropyl-5-methyl-benzoimidazol-1-yl)-3-methoxy-piperidin-1-ylmethyl]-indan-5-yl}-2,2-difluoro-acetamide] the figure was less than 20 nM. For `CCC(=O)Nc1ccc2c(c1)C[C@H](CN1CC[C@@H](n3c(C(C)C)nc4cc(C)ccc43)[C@H](OC)C1)C2` [Example 45, N-{(R)-2-[(3R,4R)-4-(2-Isopropyl-5-methyl-benzoimidazol-1-yl)-3-methoxy-piperidin-1-ylmethyl]-indan-5-yl}-propionamide], the IC50 lay in the range of 20 to 200 nM. Consider `Cc1ccc2c(c1)nc(C(C)(C)O)n2C1CCN(C[C@@H]2Cc3ccc(Br)cc3C2)CC1` [Example 96, 2-{1-[1-((R)-5-Bromo-indan-2-ylmethyl)-piperidin-4-yl]-5-methyl-1H-benzoimidazol-2-yl}-propan-2-ol], for which the IC50 was in the range of 20 to 200 nM. With “N-(2-{2-[4-(2,5-Dimethyl-benzoimidazol-1-yl)-piperidin-1-yl]-ethyl}-indan-5-yl)-isobutyramide [Example 58]”, the IC50 was 200 to 5000 nM.

Take `CCc1nc2cc(C)ccc2n1C1CCN(C[C@@H]2Cc3ccc(NC(=O)C(C)C)cc3C2)CC1OC` (stereo partly drawn) [Example 61, N-{(R)-2-[4-(2-Ethyl-5-methyl-benzoimidazol-1-yl)-3-methoxy-piperidin-1-ylmethyl]-indan-5-yl}-isobutyramide]: the IC50 was less than 20 nM.

With `CO[C@H]1CN(CC2Cc3ccccc3C2)CC[C@@H]1n1c(C(C)C)nc2cc(C)ccc21` [Example 29, 1-((3S,4S)-1-Indan-2-ylmethyl-3-methoxy-piperidin-4-yl)-2-isopropyl-5-methyl-1H-benzoimidazole], the half-maximal inhibitory concentration (IC50) fell in the range of 200 to 5000 nM.

`COc1ccc2c(c1)CC(CN1CC[C@H](n3c(C(C)C)nc4cc(C)ccc43)[C@@H](OC)C1)C2` (stereo partly drawn) [Example 93, 2-Isopropyl-1-[(3S,4S)-3-methoxy-1-(5-methoxy-indan-2-ylmethyl)-piperidin-4-yl]-5-methyl-1H-benzoimidazole dihydrochloride]: the IC50 lay in the range of 20 to 200 nM. Same read-out and setting: with `CO[C@@H]1CN(C[C@@H]2Cc3ccc(Cl)cc3C2)CC[C@H]1n1c(C(C)(C)O)nc2cc(C)ccc21` [Example 113, 2-{1-[(3R,4R)-1-((R)-5-Chloro-indan-2-ylmethyl)-3-methoxy-piperidin-4-yl]-5-methyl-1H-benzoimidazol-2-yl}-propan-2-ol] the figure was less than 20 nM; with `Cc1ccc2c(c1)nc(C(C)(C)O)n2C1CCN(CC2Cc3cccc(Cl)c3C2)CC1` (centres unmarked) [Example 103, 2-{1-[1-(4-Chloro-indan-2-ylmethyl)-piperidin-4-yl]-5-methyl-1H-benzoimidazol-2-yl}-propan-2-ol; compound with trifluoroacetic acid], 20 to 200 nM; with `Cc1ccc2c(c1)nc(C)n2C1CCN(CC2=Cc3ccc(NC(=O)C(C)C)cc3C2)CC1` [Example 53, N-{2-[4-(2,5-Dimethyl-benzoimidazol-1-yl)-piperidin-1-ylmethyl]-3H-inden-5-yl}-isobutyramide], 20 to 200 nM. On to `Cc1cc2ncn(C3CCN(CC4Cc5ccc(F)cc5C4)CC3)c2cc1F` (centres unmarked) [Example 106, 6-Fluoro-1-[1-(5-fluoro-indan-2-ylmethyl)-piperidin-4-yl]-5-methyl-1H-benzoimidazole], for which the IC50 lay within 20 to 200 nM. As to `Cc1ccc2c(c1)nc(C)n2[C@H]1CCN(C[C@@H]2Cc3ccc(NC(=O)C(C)C)cc3C2)C[C@@H]1OCC(C)(C)O` [Example 15, N-{(R)-2-[(3S,4S)-4-(2,5-Dimethyl-benzoimidazol-1-yl)-3-(2-hydroxy-2-methyl-propoxy)-piperidin-1-ylmethyl]-indan-5-yl}-isobutyramide; dihydrochloride], the IC50 was less than 20 nM. With `CO[C@@H]1CN(C[C@H]2Cc3ccc(Br)cc3C2)CC[C@H]1n1c(C(C)C)nc2cc(C)ccc21` [Example 18, 1-[(3R,4R)-1-((S)-5-Bromo-indan-2-ylmethyl)-3-methoxy-piperidin-4-yl]-2-isopropyl-5-methyl-1H-benzoimidazole], the IC50 fell in the range of 20 to 200 nM. On the same count and under the same terms, with `CO[C@H]1CN(CC2Cc3cc(F)c(F)cc3C2)CC[C@@H]1n1c(C)nc2cc(C)ccc21` [Example 101, 1-[(3S,4S)-1-(5,6-Difluoro-indan-2-ylmethyl)-3-methoxy-piperidin-4-yl]-2,5-dimethyl-1H-benzoimidazole] the figure was 20 to 200 nM; with `CCC(=O)Nc1ccc2c(c1)C[C@H](CN1CCC(n3c(C(C)C)nc4cc(C)ccc43)[C@@H](OC)C1)C2` (stereo in doubt) [Example 32, N-{(R)-2-[(3S,4S)-4-(2-Isopropyl-5-methyl-benzoimidazol-1-yl)-3-methoxy-piperidin-1-ylmethyl]-indan-5-yl}-propionamide], less than 20 nM; with `Cc1ccc2c(c1)nc(C)n2C1CCN(C[C@@H]2Cc3ccc(NC(=O)C(C)C)cc3C2)CC1O` (stereo partly drawn) [Example 27, N-{(R)-2-[4-(2,5-Dimethyl-benzoimidazol-1-yl)-3-hydroxy-piperidin-1-ylmethyl]-indan-5-yl}-isobutyramide; dihydrochloride], 200 to 5000 nM. The same measure, in the same setting: with `CO[C@H]1CN(C[C@@H]2Cc3ccc(NC(=O)C(C)C)cc3C2)CC[C@@H]1n1c(C)nc2cc(C)ccc21` [Example 34, N-{(R)-2-[(3S,4S)-4-(2,5-Dimethyl-benzoimidazol-1-yl)-3-methoxy-piperidin-1-ylmethyl]-indan-5-yl}-isobutyramide] the figure was less than 20 nM; with `Cc1ccc2c(c1)nc(C)n2C1CCN(CC2Cc3ccc(NC(=O)C(C)C)cc3C2)CC1` (centres unmarked) [Example 46, N-{2-[4-(2,5-Dimethyl-benzoimidazol-1-yl)-piperidin-1-ylmethyl]-indan-5-yl}-isobutyramide], 20 to 200 nM.

Turning to `Cc1ccc2c(c1)ncn2C1CCN(CC2Cc3cccc(Cl)c3C2)CC1` (centres unmarked) [Example 102, 1-[1-(4-Chloro-indan-2-ylmethyl)-piperidin-4-yl]-5-methyl-1H-benzoimidazole; compound with trifluoroacetic acid], the IC50 fell in the range of 200 to 5000 nM.

Consider `CO[C@@H]1CN(C[C@@H]2Cc3ccc(NC(=O)C(C)C)cc3C2)CC[C@H]1n1c(C)nc2cc(C)ccc21` [Example 16, N-{(R)-2-[(3R,4R)-4-(2,5-Dimethyl-benzoimidazol-1-yl)-3-methoxy-piperidin-1-ylmethyl]-indan-5-yl}-isobutyramide; dihydrochloride], for which the IC50 is 20 to 200 nM. Same read-out and setting: for `CO[C@H]1CN(C[C@H]2Cc3ccc(Br)cc3C2)CC[C@@H]1n1c(C(C)C)nc2cc(C)ccc21` [Example 17, 1-[(3S,4S)-1-((S)-5-Bromo-indan-2-ylmethyl)-3-methoxy-piperidin-4-yl]-2-isopropyl-5-methyl-1H-benzoimidazole] the value was 20 to 200 nM; for `CO[C@H]1CN(C[C@@H]2Cc3ccc(Br)cc3C2)CC[C@@H]1n1c(C(C)(C)O)nc2cc(C)ccc21` [Example 116, 2-{1-[(3S,4S)-1-((R)-5-Bromo-indan-2-ylmethyl)-3-methoxy-piperidin-4-yl]-5-methyl-1H-benzoimidazol-2-yl}-propan-2-ol], 20 to 200 nM; for `CO[C@@H]1CN(CC2Cc3cccc(Cl)c3C2)CC[C@H]1n1c(C)nc2cc(C)ccc21` (stereo partly drawn) [Example 97, 1-[(3R,4R)-1-(4-Chloro-indan-2-ylmethyl)-3-methoxy-piperidin-4-yl]-2,5-dimethyl-1H-benzoimidazole], 20 to 200 nM. With `CO[C@@H]1CN(CC2Cc3ccc(F)cc3C2)CC[C@H]1n1cnc2cc(C)ccc21` (stereo partly drawn) [Example 118, 1-[(3R,4R)-1-(5-Fluoro-indan-2-ylmethyl)-3-methoxy-piperidin-4-yl]-5-methyl-1H-benzoimidazole], the IC50 is 200 to 5000 nM.

The assay is the same for the next values; noted with them: membranes from CHO-K1 cells expressing human MCHR1; 0.2 nM [Phe13,[125I]Tyr19]-MCH; read-out: IC50 (nM), selected in vitro MCH-R binding data.
On to `Cc1cc2ncn(C3CCN(CC4Cc5ccc(F)cc5C4)CC3)c2cc1F` (centres unmarked) [Example 106, 6-Fluoro-1-[1-(5-fluoro-indan-2-ylmethyl)-piperidin-4-yl]-5-methyl-1H-benzoimidazole], for which the IC50 was determined as 194 nM. Still for that read-out and setting: with `Cc1ccc2c(c1)nc(C(C)(C)O)n2[C@@H]1CCN(C[C@H]2Cc3ccc(Br)cc3C2)CC1O` (stereo in doubt) [Example 126, (3R,4R)-1-((S)-5-Bromo-indan-2-ylmethyl)-4-[2-(1-hydroxy-1-methyl-ethyl)-5-methyl-benzoimidazol-1-yl]-piperidin-3-ol] the figure was 2 nM.
